Key:
Assay type in all cases: biochemical
[1] = target: Klebsiella pneumoniae ATCC 25955 B12-dependent glycerol dehydratase (GDH), wild type, SEQ ID NO: 1 (α, β, γ subunits SEQ ID NO: 2, 3, 4) (Klebsiella pneumoniae, UniProt O08505+Q59476); test: Time course of GDH reaction with glycerol, with and without 1,3-propanediol (permeabilized cells, FIG. 1); design: permeabilized cells (A1) or purified (A2-A4)
Experimental: FIG. 1 illustrates the typical time course associated with GDH inactivation. These enzyme activity assays were conducted using the GDH encoded by dhaB1, dhaB2, and dhaB3 (SEQ ID NO:1 and SEQ ID NO: 2, 3, and 4, respectively) of K. pneumoniae (WO 01/012833A2).
Cells were permeabilized as follows: aliquots of culture (0.3 mL) were dispensed into the square wells of a polypropylene deep-well plate (Beckman-Coulter, Fullerton, Calif.) and 10 μL of toluene containing 2.5% (v/v) Triton X-100 detergent was added to each well. Plates were then shaken for 10 min at top speed on an IKA MTS4 shaker (IKA-Werke Gmbh., Staufen, Germany). Working under red light to protect the coenzyme B12, reactions were started by adding 5 volumes of substrate solution to 1 volume of permeabilized cell suspension. The substrate solution contained 12 mM glycerol and 24 μM coenzyme B12 in 0.1 M K-Hepes, pH 8. At timed intervals, 12.5 μl aliquots of the reaction were added to the wells of a 96-well plate which contained 12.5 μl of 3 mg/mL MBTH in 0.4 M glycine-HCl, pH 2.7. At least 20 min after sampling, 125 μL of 5.5 mM FeCl3 in 10 mM HCl was added to each of the MBTH-containing samples. After a further 20 min or longer, the blue color associated with GDH activity was quantitated as absorbance at 670 nm using a Spectramax 160 plate reader (Molecular Devices, Sunnyvale, Calif.). A similar experiment was conducted in which the substrate solution was supplemented with 50 mM 1,3-propanediol.
The rate of product formation decreases rapidly with time as inactivation occurs. A theoretical curve was drawn through the points by fitting three parameters to the following equation y=T0+amp(1−exp(−kinact obsd*time)). […] The fitting parameters are related to the kinetic properties of the reaction as follows: the amplitude is equal to the initial rate of the reaction (v) divided by the observed enzyme inactivation rate (kinact obsd). The initial rate is [GDH][gly]kcat/(Km+[gly]). […]

[2] = target: Klebsiella pneumoniae GDH variant Xba3007 (γ-Thr53Ala), SEQ ID NO: 40 (amino acid 41, 42, 43) (Klebsiella pneumoniae, UniProt O08505+Q59476); conditions: Xba3007 (Type 1)
[3] = target: Klebsiella pneumoniae GDH variant Xba3009 (α-Thr77Ala, α-Cys193Ser, stop of α to Glu (α-β fusion), β-Lys56Arg, β-Ala88 silent, β-Asp111Glu, γ-His67Tyr, γ-Thr114 (Klebsiella pneumoniae, UniProt O08505+Q59476, C193S/D111E, form not given/K56R/T77A)); conditions: Xba3009 (Type 4)
[4] = target: Klebsiella pneumoniae GDH variant Sma3002 (α-Tyr271Cys, α-Tyr502His, stop of α to Gln (α-β fusion), β-Gln2Arg, β-Phe11 silent), SEQ ID NO: 140 (amino acid 141, (Klebsiella pneumoniae, UniProt O08505+Q59476, form not given/Y271C/Y502H)); conditions: Sma3002 (Type 2)

Compound: OCCCO [1,3-propanediol]
- Ki [1]: ~15 mM
- inactivation, times faster with 1,3-propanediol ([1]; 50 mM 1,3-propanediol, 10 mM glycerol, vs without 1,3-propanediol): ~3 times
- inhibition at 50000 µM ([1]; pH 8, read-out: reduction of initial rate of the reaction): ~20%

Compound: OCC(O)CO [glycerol]
- kcat [2]: 16,220 min^−1
- kcat [3]: 65,373 min^−1
- Km [4]: 2940 µM
- kcat [4]: 9,830 min^−1

From patent US8569469B2, “B12-dependent dehydratases with improved reaction kinetics” (priority 2002, dated 2013)
